For 1 compound, Activity and EC50 results are on record in ChEMBL document CHEMBL1154911, “Structure and biosynthesis of amphidinol 17, a hemolytic compound from Amphidinium carterae” (J Nat Prod, 2010).

One data set deals with Kluyveromyces marxianus. The data set is described as follows: Antifungal activity against Candida kefyr ATCC 2512 by disk diffusion method. It is filed as functional, organism-based. On the technique in general: In agar diffusion tests the substance spreads into inoculated agar from a disc or well.
A short description of data set [1]: Toxicity in human RBC assessed as hemolytic activity after 24 hrs by microtiter plate assay. It is filed as cell-based, Erythrocyte. The note with it: human red blood cells (RBC).
In a further data set the test system is Aspergillus niger. The data set is described as follows: Antifungal activity against Aspergillus niger ATCC 16404 by disk diffusion method. It is filed as functional, organism-based.

A word on the EC50: it is the concentration giving half of the maximal effect.

The source made the active and inactive calls. The calls are words filed in the database; no cut-off is given here.

Take `C=CCC/C=C/C=C/C=C/CC/C=C/[C@@H](O)[C@H](O)C1O[C@@H]([C@H](O)[C@H](O)C(=C)CC[C@@H](O)C2C[C@@H](O)[C@@H](O)[C@H]([C@@H](O)[C@H](O)/C=C(\C)CC[C@H](O)C[C@H](O)[C@H](O)[C@@H](C)C[C@H](O)C(O)C(C)CCC(O)CCCC(O)CCCCCOS(=O)(=O)O)O2)C[C@@H](O)[C@H]1O` (stereo partly drawn) [AMPHIDINOL 17]: the result in the data set on Kluyveromyces marxianus and in the data set on Aspergillus niger was inactive. Also, the concentration for a half-maximal effect (EC50) at 24 h in data set [1] worked out at 4.9 µM.
